Results as given in patent US7897602B2, “Indolinone compounds as kinase inhibitors” (Development Center for Biotechnology, priority 2009, dated 2011).

Tests used:
Format in all cases: biochemical
Aurora B kinase = target: T1, Aurora B kinase (Homo sapiens, UniProt Q96GD4); experiment: Aurora B kinase assay ([γ-33P]ATP, CHOCKtide substrate); settings: for inhibition at 1 µM: 1.0 μM test compound
T1 construct: purchased Cell signaling
Procedure, shortened: (§1)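 Radiometric filter-binding format: 33P incorporation into CHOCKtide counted after acid stop and filtration. Reactions ran 30 min at 33 °C, Aurora A with 10 μM ATP, Aurora B with 40 μM ATP. IC50 taken as concentration giving half-maximal kinase inhibition.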

Aurora A kinase = target: T2, Aurora A kinase (Homo sapiens, UniProt O14965); experiment: Aurora A kinase assay ([γ-33P]ATP, CHOCKtide substrate); settings: for inhibition at 1 µM: 1.0 μM test compound
T2 construct: purchased Upstate
T2 sequence (O14965 1-403): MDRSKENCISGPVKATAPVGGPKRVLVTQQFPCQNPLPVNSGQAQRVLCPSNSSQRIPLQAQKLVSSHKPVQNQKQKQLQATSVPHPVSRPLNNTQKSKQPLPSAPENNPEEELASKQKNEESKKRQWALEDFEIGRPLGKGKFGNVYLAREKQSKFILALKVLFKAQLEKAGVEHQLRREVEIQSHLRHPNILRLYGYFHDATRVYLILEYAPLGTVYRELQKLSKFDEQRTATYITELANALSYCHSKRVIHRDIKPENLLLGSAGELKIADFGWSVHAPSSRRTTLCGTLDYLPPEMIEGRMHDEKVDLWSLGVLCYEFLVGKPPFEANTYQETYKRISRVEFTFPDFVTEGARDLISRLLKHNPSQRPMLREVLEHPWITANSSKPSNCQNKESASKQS
Procedure, shortened: as §1

c-Met kinase = target: T3, c-Met kinase (Homo sapiens, UniProt P08581); experiment: c-Met kinase assay (33P incorporation into Poly(Glu-Tyr)); settings: 500 nM test compound
T3 construct: recombinant N-terminal 6×His-tagged c-Met kinase domain construct expressed from baculovirus; 6xHis (N); made in house
T3 sequence (P08581 1078-1345 limits assumed): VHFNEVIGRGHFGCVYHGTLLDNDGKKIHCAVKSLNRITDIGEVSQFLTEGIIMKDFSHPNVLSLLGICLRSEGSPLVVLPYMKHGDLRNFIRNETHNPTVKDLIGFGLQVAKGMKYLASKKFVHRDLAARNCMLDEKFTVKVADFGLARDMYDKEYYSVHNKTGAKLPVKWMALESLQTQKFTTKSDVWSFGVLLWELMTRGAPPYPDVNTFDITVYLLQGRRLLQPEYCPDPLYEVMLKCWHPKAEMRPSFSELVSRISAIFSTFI
Procedure, shortened: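 Single-concentration test (500 nM compound) at 30° C for 30 min, pH 7.0 MOPS buffer with 100 μM ATP and [33P]-γ-ATP. Enzyme was baculovirus-expressed 6×His c-Met kinase domain (5 ng), substrate Poly(Glu-Tyr) 4:1. Inhibition percentage derived from filter-bound counts relative to DMSO control.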

PDGFR-β kinase = target: T4, PDGFR-β kinase (Homo sapiens, UniProt P09619); experiment: PDGFR-β kinase assay (33P incorporation into Poly(Glu-Tyr)); settings: 500 nM test compound
T4 construct: recombinant N-terminal 6×His-tagged PDGFR-β kinase domain construct expressed by baculovirus; 6xHis (N); made in house
T4 sequence (P09619 600-962 limits assumed): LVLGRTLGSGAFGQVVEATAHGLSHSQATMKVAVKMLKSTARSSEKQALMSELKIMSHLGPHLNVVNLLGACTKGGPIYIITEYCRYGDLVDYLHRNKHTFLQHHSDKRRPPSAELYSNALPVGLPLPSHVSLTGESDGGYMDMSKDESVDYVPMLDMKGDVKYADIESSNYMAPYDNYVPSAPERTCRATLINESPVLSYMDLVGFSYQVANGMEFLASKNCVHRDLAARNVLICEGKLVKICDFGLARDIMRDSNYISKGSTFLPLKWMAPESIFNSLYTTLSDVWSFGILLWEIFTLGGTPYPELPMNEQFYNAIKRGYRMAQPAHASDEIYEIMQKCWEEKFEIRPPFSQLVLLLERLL
Procedure, shortened: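 His-tagged PDGFR-β kinase domain (55 ng) with Poly(Glu-Tyr) 4:1, 30 μM ATP plus [33P]-γ-ATP, pH 7.0 MnCl2 buffer, and 500 nM compound for 30 min at 30° C. Filter-bound radioactivity counted; inhibition computed relative to DMSO control.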

T1 sequence (Q96GD4 whole entry): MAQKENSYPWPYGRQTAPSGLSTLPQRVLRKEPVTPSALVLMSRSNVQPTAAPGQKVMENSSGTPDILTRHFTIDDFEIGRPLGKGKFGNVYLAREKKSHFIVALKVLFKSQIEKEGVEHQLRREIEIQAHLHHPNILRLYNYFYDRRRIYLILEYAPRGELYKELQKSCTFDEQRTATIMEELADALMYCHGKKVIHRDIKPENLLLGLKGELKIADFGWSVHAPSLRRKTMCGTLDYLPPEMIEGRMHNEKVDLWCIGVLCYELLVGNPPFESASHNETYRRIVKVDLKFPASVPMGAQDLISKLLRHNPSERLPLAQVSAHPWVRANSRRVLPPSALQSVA

Structure (SMILES)	inhibition at 1 µM (Aurora B kinase) [%]	inhibition at 1 µM (Aurora A kinase) [%]	inhibition at 0.5 µM (c-Met kinase) [%]	inhibition at 0.5 µM (PDGFR-β kinase) [%]	IC50 (Aurora A kinase) [nM]	IC50 (Aurora B kinase) [nM]
CCS(=O)(=O)Nc1ccc2c(c1)/C(=C/c1[nH]c3c(c1CCC(=O)O)C(=O)CCC3)C(=O)N2 [DCB-70119, (Z)-5-ethylsulfonamido-3-((3-carboxyethyl-4-oxo-4,5,6,7-tetrahydro-1H-indol-2-yl)methylene)indolin-2-one]	7.3	95.4	31.8	8.3	–	–
CCOC(=O)CCc1c(/C=C2\C(=O)Nc3ccc(NC(=O)Nc4ccc(Cl)c(C(F)(F)F)c4)cc32)[nH]c2c1C(=O)CCC2 [DCB-70137, (Z)-ethyl 3-(2-((5-(3-(4-chloro-3-(trifluoromethyl)phenyl)ureido)-2-oxoindolin-3-ylidene)methyl)-4-oxo-4,5,6,7-tetrahydro-1H-indol-3-yl)propanoate]	-3.3	12.6	11.5	11.5	–	–
CCOC(=O)CCc1c(/C=C2\C(=O)Nc3ccc(S(=O)(=O)NC)cc32)[nH]c2c1C(=O)CCC2 [DCB-70064, (Z)-5-(N-methylsulfamoyl)-3-((3-(3-ethoxy-3-oxopropyl)-4-oxo-4,5,6,7-tetrahydro-1H-indol-2-yl)methylene)indolin-2-one]	22.2	78.6	48.1	56.7	313	–
O=C(O)CCc1c(/C=C2\C(=O)Nc3ccc(NS(=O)(=O)c4ccccc4)cc32)[nH]c2c1C(=O)CCC2 [DCB-70103, (Z)-5-phenylsulfonamido-3-((3-carboxyethyl-4-oxo-4,5,6,7-tetrahydro-1H-indol-2-yl)methylene)indolin-2-one]	80.1	98.9	37.9	51	12.3	156
O=C(O)CCc1c(/C=C2\C(=O)Nc3ccc(S(=O)(=O)Cc4c(Cl)cccc4Cl)cc32)[nH]c2c1C(=O)CCC2 [DCB-70073, (Z)-5-(2,6-dichlorobenzylsulfonyl)-3-((3-carboxyethyl-4-oxo-4,5,6,7-tetrahydro-1H-indol-2-yl)methylene)indolin-2-one]	9.4	65.5	91.6	29.3	–	–
CCOC(=O)CCc1c(/C=C2\C(=O)Nc3ccc(NCc4ccccc4)cc32)[nH]c2c1C(=O)CCC2 [DCB-70131, (Z)-ethyl 3-(2-((5-(benzylamino)-2-oxoindolin-3-ylidene)methyl)-4-oxo-4,5,6,7-tetrahydro-1H-indol-3-yl)propanoate]	44.5	70.7	-2.1	40.8	–	–
C=CS(=O)(=O)c1ccc2c(c1)/C(=C/c1[nH]c3c(c1CCC(=O)O)C(=O)CCC3)C(=O)N2 [DCB-70115, (Z)-5-vinylsulfonyl-3-((3-carboxyethyl-4-oxo-4,5,6,7-tetrahydro-1H-indol-2-yl)methylene)indolin-2-one]	32.5	99.4	22.3	22	–	–
COc1cc(-c2ccc3c(c2)/C(=C/c2[nH]c4c(c2CCC(=O)O)C(=O)CCC4)C(=O)N3)ccc1O [DCB-70059, (Z)-5-(4-hydroxyl-3-methoxyphenyl)-3-((3-carboxyethyl-4-oxo-4,5,6,7-tetrahydro-1H-indol-2-yl)methylene)indolin-2-one]	12.4	76.1	16.3	38.3	357	–
CCOC(=O)CCc1c(/C=C2\C(=O)Nc3cc(-c4ccc(O)c(OC)c4)ccc32)[nH]c2c1C(=O)CCC2 [DCB-70081, (Z)-6-(4-hydroxy-3-methoxyphenyl)-3-((3-(3-ethoxy-3-oxopropyl)-4-oxo-4,5,6,7-tetrahydro-1H-indol-2-yl)methylene)indolin-2-one]	30.6	27.7	25.6	25.2	–	–
CCOC(=O)CCc1c(/C=C2\C(=O)Nc3cc(-c4ccc5c(c4)OCO5)ccc32)[nH]c2c1C(=O)CCC2 [DCB-70128, (Z)-ethyl 3-(2-((6-(benzo[d][1,3]dioxol-5-yl)-2-oxoindolin-3-ylidene)methyl)-4-oxo-4,5,6,7-tetrahydro-1H-indol-3-yl)propanoate]	13.5	5.1	12.5	9	–	–
CCOC(=O)CCc1c(/C=C2\C(=O)Nc3ccccc32)[nH]c2c1C(=O)CCC2 [DCB-70049, (Z)-3-((3-(3-ethoxy-3-oxopropyl)-4-oxo-4,5,6,7-tetrahydro-1H-indol-2-yl)methylene)indolin-2-one]	2.3	32.6	26	54	1780	5920
O=C(O)CCc1c(/C=C2\C(=O)Nc3cc(-c4cc5ccccc5s4)ccc32)[nH]c2c1C(=O)CCC2 [DCB-70080, (Z)-6-(benzo[b]thiophen-2-yl)-3-((3-carboxyethyl-4-oxo-4,5,6,7-tetrahydro-1H-indol-2-yl)methylene)indolin-2-one]	35.2	40.3	-21.3	56.7	–	–
O=C(O)CCc1c(/C=C2\C(=O)Nc3ccc(S(=O)(=O)N4CCCC4)cc32)[nH]c2c1C(=O)CCC2 [DCB-70087, (Z)-5-(pyrrolidin-1-ylsulfonyl)-3-((3-carboxyethyl-4-oxo-4,5,6,7-tetrahydro-1H-indol-2-yl)methylene)indolin-2-one]	66.2	99.7	20.9	7.8	7.3	441
CCOC(=O)CCc1c(/C=C2\C(=O)Nc3cc(-c4ccc(F)cc4)ccc32)[nH]c2c1C(=O)CCC2 [DCB-70098, (Z)-6-(4-fluorophenyl)-3-((3-(3-ethoxy-3-oxopropyl)-4-oxo-4,5,6,7-tetrahydro-1H-indol-2-yl)methylene)indolin-2-one]	19.5	4	27.2	39.3	–	–
O=C(O)CCc1c(/C=C2\C(=O)Nc3ccc(S(=O)(=O)N4CCc5ccccc54)cc32)[nH]c2c1C(=O)CCC2 [DCB-70106, (Z)-5-(indolin-1-ylsulfonyl)-3-((3-carboxyethyl-4-oxo-4,5,6,7-tetrahydro-1H-indol-2-yl)methylene)indolin-2-one]	70.6	99	59.6	36.3	8.1	292
CCOC(=O)CCc1c(/C=C2\C(=O)Nc3ccc(-c4ccc(F)cc4)cc32)[nH]c2c1C(=O)CCC2 [DCB-70108, (Z)-5-(4-fluorophenyl)-3-((3-(3-ethoxy-3-oxopropyl)-4-oxo-4,5,6,7-tetrahydro-1H-indol-2-yl)methylene)indolin-2-one]	6.8	7.5	30.1	4	–	–
CCOC(=O)CCc1c(/C=C2\C(=O)Nc3ccc(NC(=O)c4ccccc4)cc32)[nH]c2c1C(=O)CCC2 [DCB-70096, (Z)-5-benazmido-3-((3-(3-ethoxy-3-oxopropyl)-4-oxo-4,5,6,7-tetrahydro-1H-indol-2-yl)methylene)indolin-2-one]	15.1	38.6	8.9	14.9	–	–
